In US5840684A, “Glycopeptide antibiotic derivatives” (Eli Lilly and Company, priority 1995, dated 1998):
≈ marks a conversion by molar mass, not a printed value.

Legend:
[1] = system: vancomycin-susceptible enterococci; assay: broth micro-dilution, mean geometric MIC; assay type: cell-based, Enterococcus faecium and Enterococcus faecalis; settings: enterococci, 24-hour incubation
Entercoccus faecium 180 = assay: broth micro-dilution MIC; assay type: cell-based; settings: Entercoccus faecium 180
Method: (§1) The formula I compounds have in vitro and in vivo activity against Gram-positive pathogenic bacteria. The MIC's were determined using a standard broth micro-dilution assay.

[2] = system: Staphylococcus haemolyticus 415; assay: broth micro-dilution MIC; assay type: cell-based
Method: as §1

[3] = system: Enterococcus gallinarum 245; assay: broth micro-dilution MIC; assay type: cell-based; settings: Enterococcus gallinarum 245
Method: as §1

[4] = system: Staphylococcus epidermidis 270; assay: broth micro-dilution MIC; assay type: cell-based
Method: as §1

[5] = system: Streptococcus pneumoniae P1; assay: broth micro-dilution MIC; assay type: cell-based
Method: as §1

[6] = system: Staphylococcus aureus 447; assay: broth micro-dilution MIC; assay type: cell-based
Method: (§2) The MIC's were determined using a standard broth micro-dilution assay.

[7] = system: Staphylococcus aureus SA1199A; assay: broth micro-dilution MIC; assay type: cell-based
Method: as §2

[8] = system: Staphylococcus aureus 489; assay: broth micro-dilution MIC; assay type: cell-based
Method: as §2

[9] = system: Staphylococcus aureus 446; assay: broth micro-dilution MIC; assay type: cell-based
Method: as §2

[10] = system: Entercoccus faecium 180-1; assay: broth micro-dilution MIC; assay type: cell-based
Method: as §2

Entercoccus faecium 276 = assay: broth micro-dilution MIC; assay type: cell-based
Method: as §2

[11] = system: Staphylococcus aureus X400; assay: broth micro-dilution MIC; assay type: cell-based
Method: as §2

[12] = system: vancomycin-resistant enterococci; assay: broth micro-dilution, mean geometric MIC; assay type: cell-based, Enterococcus faecium and Enterococcus faecalis; settings: enterococci, 24-hour incubation
[13] = system: Staphylococcus aureus SA1199B; assay type: cell-based
Method: as §2

[14] = system: Staphylococcus haemolyticus 105; assay: broth micro-dilution MIC; assay type: cell-based
Method: as §1

[15] = system: Streptococcus pyogenes C203; assay: broth micro-dilution MIC; assay type: cell-based
Method: as §2

Entercoccus faecium 2041 = assay: broth micro-dilution MIC; assay type: cell-based; settings: Entercoccus faecium 2041
Method: as §1

[16] = system: Staphylococcus aureus X778; assay: broth micro-dilution MIC; assay type: cell-based
Method: as §2

[17] = system: Staphylococcus aureus S13E; assay type: cell-based
Method: as §2

[18] = system: Staphylococcus aureus SA1199; assay: broth micro-dilution MIC; assay type: cell-based
Method: as §2

| Compound | mean geometric MIC, Vancomycin Sensitive Strains [1] [µg/mL] | MIC (Entercoccus faecium 180) [µg/mL] | MIC [2] [µg/mL] | MIC [3] [µg/mL] | MIC [4] [µg/mL] | MIC [5] [µg/mL] | MIC [6] [µg/mL] | MIC [7] [µg/mL] | MIC [8] [µg/mL] | MIC [9] [µg/mL] | MIC [10] [µg/mL] | MIC (Entercoccus faecium 276) [µg/mL] | MIC [11] [µg/mL] | mean geometric MIC, Vancomycin Resistant Strains [12] [µg/mL] | MIC [13] [µg/mL] | MIC [14] [µg/mL] | MIC [15] [µg/mL] | MIC (Entercoccus faecium 2041) [µg/mL] | further results |
| --- | --- | --- | --- | --- | --- | --- | --- | --- | --- | --- | --- | --- | --- | --- | --- | --- | --- | --- | --- |
| CCOc1ccc2ccccc2c1CNC1(C)CC(OC2C(Oc3c4cc5cc3Oc3ccc(cc3Cl)C(OC3CC(C)(N)C(O)C(C)O3)C3NC(=O)C(NC(=O)C5NC(=O)C(CC(N)=O)NC(=O)C(NC(=O)C(CC(C)C)NC)C(O)c5ccc(c(Cl)c5)O4)c4ccc(O)c(c4)-c4c(O)cc(O)cc4C(C(=O)O)NC3=O)OC(CO)C(O)C2O)OC(C)C1O (stereo not shown) [Compound 60] | 3.0 | 4 (≈ 2.25 µM) | 16 (≈ 9.01 µM) | 16 (≈ 9.01 µM) | 2 (≈ 1.13 µM) | ≤ 0.06 | 2 (≈ 1.13 µM) | ≤ 0.06 | 0.5 (≈ 0.281 µM) | 1 (≈ 0.563 µM) | ≤ 0.06 | 0.5 (≈ 0.281 µM) | 0.5 (≈ 0.281 µM) | 19 | 0.5 (≈ 0.281 µM) |  |  |  |  |
| CNC(CC(C)C)C(=O)NC1C(=O)NC(CC(N)=O)C(=O)NC2C(=O)NC3C(=O)NC(C(=O)NC(C(=O)O)c4cc(O)cc(O)c4-c4cc3ccc4O)C(OC3CC(C)(N)C(O)C(C)O3)c3ccc(c(Cl)c3)Oc3cc2cc(c3OC2OC(CO)C(O)C(O)C2OC2CC(C)(NCCc3ccc(Oc4ccccc4)cc3)C(O)C(C)O2)Oc2ccc(cc2Cl)C1O (stereo not shown) [Compound 63] | 0.66 |  | 8 (≈ 4.47 µM) | 8 (≈ 4.47 µM) | 1 (≈ 0.559 µM) | ≤ 0.06 | 1 (≈ 0.559 µM) |  | 8 (≈ 4.47 µM) | 0.5 (≈ 0.28 µM) | ≤ 0.06 | 0.5 (≈ 0.28 µM) | ≤ 0.06 | 54 | 0.5 (≈ 0.28 µM) | 4 (≈ 2.24 µM) | ≤ 0.06 |  |  |
| CNC(CC(C)C)C(=O)NC1C(=O)NC(CC(N)=O)C(=O)NC2C(=O)NC3C(=O)NC(C(=O)NC(C(=O)O)c4cc(O)cc(O)c4-c4cc3ccc4O)C(OC3CC(C)(N)C(O)C(C)O3)c3ccc(c(Cl)c3)Oc3cc2cc(c3OC2OC(CO)C(O)C(O)C2OC2CC(C)(NCc3cc(C)cs3)C(O)C(C)O2)Oc2ccc(cc2Cl)C1O (stereo not shown) [Compound 66] | 0.76 | 2 (≈ 1.17 µM) | 8 (≈ 4.7 µM) | 8 (≈ 4.7 µM) | 1 (≈ 0.587 µM) | ≤ 0.06 | 1 (≈ 0.587 µM) | ≤ 0.06 | 1 (≈ 0.587 µM) |  | ≤ 0.06 | ≤ 0.06 |  | 16 |  |  |  | ≤ 0.06 | MIC [16]: ≤ 0.06 µg/mL; MIC [17]: ≤ 0.06 µg/mL |
| CNC(CC(C)C)C(=O)NC1C(=O)NC(CC(N)=O)C(=O)NC2C(=O)NC3C(=O)NC(C(=O)NC(C(=O)O)c4cc(O)cc(O)c4-c4cc3ccc4O)C(OC3CC(C)(N)C(O)C(C)O3)c3ccc(c(Cl)c3)Oc3cc2cc(c3OC2OC(CO)C(O)C(O)C2OC2CC(C)(NCc3ccc(C)c(C)c3)C(O)C(C)O2)Oc2ccc(cc2Cl)C1O (stereo not shown) [Compound 76] |  | 0.5 (≈ 0.292 µM) | 4 (≈ 2.34 µM) | 4 (≈ 2.34 µM) |  | ≤ 0.06 | 0.5 (≈ 0.292 µM) |  | ≤ 0.06 |  | ≤ 0.06 | ≤ 0.06 |  | 8.0 |  | 2 (≈ 1.17 µM) | ≤ 0.06 | ≤ 0.06 | MIC [18]: ≤ 0.06 µg/mL |
